{"source": "paper PMC11149339", "about": "“Necessity for higher teicoplanin doses in older adults: a multicenter prospective observational study in China” (BMC Geriatrics, 2024)", "assay": "Therapeutic drug monitoring of teicoplanin trough concentration (Cmin) during treatment, LC-MS/MS", "assay_type": "in vivo, human", "conditions": "for TDM ≤ 7d (teicoplanin trough concentration) / TDM ≥ 15d (teicoplanin trough concentration): median [IQR], LC-MS/MS", "protocol": "Teicoplanin (Targocid, Sanofi, Dublin, Ireland) was administered intravenously for 30 min. The prescribed dose regimens were at the discretion of treating physicians, and the recommended regimens were not always followed.\nBlood samples (5 mL) were collected from the elbow into ethylenediaminetetraacetic acid-containing Vacutainers® (Becton Dickinson, Milan, Italy) in the morning before teicoplanin administration and after drug withdrawal. Samples were promptly refrigerated and centrifuged at 2500 × g for 10 min before 2 mL of supernatant was preserved at -20 °C for subsequent analysis. Teicoplanin concentrations were determined using liquid chromatography-tandem mass spectrometry. The linear range of the method was 1.0–100.0 mg/L, and the lower limit of quantification was 1.0 mg/L. The relative standard deviation of intra- and inter-batch precision was ≤ 10%.\nTeicoplanin concentrations were dynamically monitored. Concentrations at 3, ≤ 7, 8–14, and ≥ 15 days after the first dose and within 2 h of the next scheduled dose were recorded as TDM3d, TDM≤7d, TDM8-14d, and TDM≥15d, respectively. Concentrations at 3, ≤ 7, 8–14, and ≥ 15 days after the last teicoplanin dose (withdrawal) were recorded as TDMw3d, TDMw≤7d, TDMw8-14d, and TDMw≥15d. respectively (Fig. 1a). The Cmin target was ≥ 10 mg/L [6, 7, 23]; a concentration < 10 mg/L was considered suboptimal. Average TDM (TDMa) was defined as the mean Cmin after 3 days of treatment.", "key": {"[1]": {"conditions": "≤ 7 days after first dose, LR-A + MR-A"}, "[2]": {"conditions": "≤ 7 days after first dose, LR-B + MR-A"}, "[3]": {"conditions": "≤ 7 days after first dose, LR-B + MR-B"}, "[4]": {"conditions": "≤ 7 days after first dose, LR-C + MR-B"}, "[5]": {"conditions": "≤ 7 days after first dose, LR-C + MR-C"}, "[6]": {"conditions": "≥ 15 days after first dose, LR-A + MR-A"}, "[7]": {"conditions": "≥ 15 days after first dose, LR-B + MR-A"}, "[8]": {"conditions": "≥ 15 days after first dose, LR-B + MR-B"}, "[9]": {"conditions": "≥ 15 days after first dose, LR-C + MR-B"}}}
{"substance": "Teicoplanin", "values": [{"measurement": "target concentration achievement rate (≥ 10 mg/L)", "setting": "TDM3d, LR-B + MR-A regimen", "value": 10.5, "unit": "%"}, {"measurement": "target concentration achievement rate (≥ 10 mg/L)", "setting": "TDM3d, LR-B + MR-B regimen", "value": 50.0, "unit": "%"}, {"measurement": "target concentration achievement rate (≥ 10 mg/L)", "setting": "TDM3d, LR-C + MR-B regimen", "value": 62.5, "unit": "%"}, {"measurement": "target concentration achievement rate (≥ 10 mg/L)", "setting": "TDM3d, LR-C + MR-C regimen", "value": 78.6, "unit": "%"}, {"measurement": "target concentration achievement rate (≥ 10 mg/L)", "setting": "TDM≤7d, LR-A + MR-A regimen", "value": 18.3, "unit": "%"}, {"measurement": "target concentration achievement rate (≥ 10 mg/L)", "setting": "TDM≤7d, LR-B + MR-A regimen", "value": 24.1, "unit": "%"}, {"measurement": "target concentration achievement rate (≥ 10 mg/L)", "setting": "TDM≤7d, LR-B + MR-B regimen", "value": 57.2, "unit": "%"}, {"measurement": "target concentration achievement rate (≥ 10 mg/L)", "setting": "TDM≤7d, LR-C + MR-B regimen", "value": 56.2, "unit": "%"}, {"measurement": "target concentration achievement rate (≥ 10 mg/L)", "setting": "TDM≤7d, LR-C + MR-C regimen", "value": 85.7, "unit": "%"}, {"measurement": "target concentration achievement rate (≥ 10 mg/L)", "setting": "TDM≥15d, LR-A + MR-A regimen", "value": 77.8, "unit": "%"}, {"measurement": "target concentration achievement rate (≥ 10 mg/L)", "setting": "TDM≥15d, LR-B + MR-A regimen", "value": 84.6, "unit": "%"}, {"measurement": "target concentration achievement rate (≥ 10 mg/L)", "setting": "TDM≥15d, LR-B + MR-B regimen", "value": 100, "unit": "%"}, {"measurement": "target concentration achievement rate (≥ 10 mg/L)", "setting": "TDM≥15d, LR-C + MR-B regimen", "value": 100, "unit": "%"}, {"measurement": "patients achieving therapeutic concentrations", "setting": "after 14 days of administration, all patients", "value": "more than 80%"}, {"measurement": "patients with TDM 10–20 mg/L ≤ 7d, N (%)", "setting": "[1]", "value": "6(12.2)"}, {"measurement": "patients with TDM < 10 mg/L ≤ 7d, N (%)", "setting": "[1]", "value": "40(81.7)"}, {"measurement": "patients with TDM > 20 mg/L ≤ 7d, N (%)", "setting": "[1]", "value": "3(6.1)"}, {"measurement": "TDM ≤ 7d (teicoplanin trough concentration)", "setting": "≤ 7 days after first dose, LR-A + MR-A (200 mg once daily, then 200 mg once daily)", "value": "6.4[4.7,8.2] mg/L"}, {"measurement": "patients with TDM 10–20 mg/L ≤ 7d, N (%)", "setting": "[2]", "value": "10(18.5)"}, {"measurement": "patients with TDM < 10 mg/L ≤ 7d, N (%)", "setting": "[2]", "value": "41(75.9)"}, {"measurement": "patients with TDM > 20 mg/L ≤ 7d, N (%)", "setting": "[2]", "value": "3(5.6)"}, {"measurement": "TDM ≤ 7d (teicoplanin trough concentration)", "setting": "≤ 7 days after first dose, LR-B + MR-A (400 mg once daily, then 200 mg once daily)", "value": "7.2[5.5,10.0] mg/L"}, {"measurement": "patients with TDM 10–20 mg/L ≤ 7d, N (%)", "setting": "[3]", "value": "2(28.6)"}, {"measurement": "patients with TDM < 10 mg/L ≤ 7d, N (%)", "setting": "[3]", "value": "3(42.8)"}, {"measurement": "patients with TDM > 20 mg/L ≤ 7d, N (%)", "setting": "[3]", "value": "2(28.6)"}, {"measurement": "TDM ≤ 7d (teicoplanin trough concentration)", "setting": "≤ 7 days after first dose, LR-B + MR-B (400 mg once daily, then 400 mg once daily)", "value": "12.42[8.3,22.0] mg/L"}, {"measurement": "patients with TDM 10–20 mg/L ≤ 7d, N (%)", "setting": "[4]", "value": "9(56.2)"}, {"measurement": "patients with TDM < 10 mg/L ≤ 7d, N (%)", "setting": "[4]", "value": "7(43.8)"}, {"measurement": "patients with TDM > 20 mg/L ≤ 7d, N (%)", "setting": "[4]", "value": 0}, {"measurement": "TDM ≤ 7d (teicoplanin trough concentration)", "setting": "≤ 7 days after first dose, LR-C + MR-B (400 mg at 12-h intervals, then 400 mg once daily)", "value": "11.0[7.0,12.6] mg/L"}, {"measurement": "patients with TDM 10–20 mg/L ≤ 7d, N (%)", "setting": "[5]", "value": "8(57.1)"}, {"measurement": "patients with TDM < 10 mg/L ≤ 7d, N (%)", "setting": "[5]", "value": "2(14.3)"}, {"measurement": "patients with TDM > 20 mg/L ≤ 7d, N (%)", "setting": "[5]", "value": "4(28.6)"}, {"measurement": "TDM ≤ 7d (teicoplanin trough concentration)", "setting": "≤ 7 days after first dose, LR-C + MR-C (400 mg at 12-h intervals, then 400 mg twice daily)", "value": "14.4[12.0,21.2] mg/L"}, {"measurement": "TDM ≤ 7d (teicoplanin trough concentration)", "setting": "≤ 7 days after first dose, all patients (N = 204), iv", "value": "7.6[5.6,12.2] mg/L"}, {"measurement": "patients having suboptimal concentrations (< 10 mg/L), TDM≤7d", "setting": "≤ 7 days after first dose, all patients, 93 patients", "value": 66.4, "unit": "%"}, {"measurement": "patients with TDM 10–20 mg/L ≥ 15d, N (%)", "setting": "[6]", "value": "16(59.3)"}, {"measurement": "patients with TDM < 10 mg/L ≥ 15d, N (%)", "setting": "[6]", "value": "6(22.2)"}, {"measurement": "patients with TDM > 20 mg/L ≥ 15d, N (%)", "setting": "[6]", "value": "5(18.5)"}, {"measurement": "TDM ≥ 15d (teicoplanin trough concentration)", "setting": "≥ 15 days after first dose, LR-A + MR-A (200 mg once daily, then 200 mg once daily)", "value": "12.7[10.1,17.4] mg/L"}, {"measurement": "patients with TDM 10–20 mg/L ≥ 15d, N (%)", "setting": "[7]", "value": "15(57.7)"}, {"measurement": "patients with TDM < 10 mg/L ≥ 15d, N (%)", "setting": "[7]", "value": "4(15.4)"}, {"measurement": "patients with TDM > 20 mg/L ≥ 15d, N (%)", "setting": "[7]", "value": "7(26.9)"}, {"measurement": "TDM ≥ 15d (teicoplanin trough concentration)", "setting": "≥ 15 days after first dose, LR-B + MR-A (400 mg once daily, then 200 mg once daily)", "value": "15.7[11.9,22.0] mg/L"}, {"measurement": "patients with TDM 10–20 mg/L ≥ 15d, N (%)", "setting": "[8]", "value": "1(50.0)"}, {"measurement": "patients with TDM < 10 mg/L ≥ 15d, N (%)", "setting": "[8]", "value": 0}, {"measurement": "patients with TDM > 20 mg/L ≥ 15d, N (%)", "setting": "[8]", "value": "1(50.0)"}, {"measurement": "TDM ≥ 15d (teicoplanin trough concentration)", "setting": "≥ 15 days after first dose, LR-B + MR-B (400 mg once daily, then 400 mg once daily)", "value": "20.3[13.8,20.4] mg/L"}, {"measurement": "patients with TDM 10–20 mg/L ≥ 15d, N (%)", "setting": "[9]", "value": "1(33.3)"}, {"measurement": "patients with TDM < 10 mg/L ≥ 15d, N (%)", "setting": "[9]", "value": 0}, {"measurement": "patients with TDM > 20 mg/L ≥ 15d, N (%)", "setting": "[9]", "value": "2(66.7)"}, {"measurement": "TDM ≥ 15d (teicoplanin trough concentration)", "setting": "≥ 15 days after first dose, LR-C + MR-B (400 mg at 12-h intervals, then 400 mg once daily)", "value": "23.0[19.4,28.6] mg/L"}, {"measurement": "TDM ≥ 15d (teicoplanin trough concentration)", "setting": "≥ 15 days after first dose, all patients (N = 204), iv", "value": "15.8[11.0,21.8] mg/L"}, {"measurement": "patients having suboptimal concentrations (< 10 mg/L), TDM≥15d", "setting": "≥ 15 days after first dose, all patients, 10 patients", "value": 17.0, "unit": "%"}]}
